Tests used:
[1] = tested on: astrocytes from TLR3-deficient mice; assay: IL-6 release by astrocytes from TLR3-deficient mice (ELISA); type: cell-based; conditions: TLR3-deficient mouse astrocytes, 48 h
Method: (§1) Astrocytes were cultured in poly L-lysine coated 96 well-flat-bottom plates at 1×10^4 cells per well in 100 l DMEM/HAM-F10 medium containing 10% FCS and antibiotic supplements for 24 h to obtain post-confluent cultures. Recombinant human stathmin was next added to astrocytes, and parallel control stimuli were performed with either poly I:C, an established TLR3 agonist, or ultrapure lipopolysaccharides, established TLR4 agonists. After addition of these stimuli astrocytes were incubated for another 48 h. Astrocyte culture supernatants were subsequently collected and using a commercial ELISA kit levels of IL-6 were determined, as a marker for TLR-mediated activation of murine astrocytes.

[2] = tested on: neurons in organotypic human brain slice cultures; assay: Neuronal survival in organotypic human brain slice cultures (calcein-AM / ethidium homodimer-1); type: cell-based; conditions: slices cultured 1 week; p<0.03
Method: Organotypic human brain slice cultures were set up and analyzed as previously described (Verwer et al., FASEB J. 16:54-60 [2002]). Briefly, tissue blocks were collected from different post-mortem cortical samples and 200-μm slices were produced. These slices were cultured for 1 week in Poly I:C- or LPS-conditioned astrocyte media that were obtained upon culturing astrocytes in the presence of either 50 μg/mL poly I:C or 200 ng/mL LPS. As a control untreated astrocyte-conditioned media from the same donor was used. All astrocyte-conditioned media were harvested after 48 h and stored at −20° C. Viability of neurons in the slice cultures was evaluated using calcein-AM and ethidium homodimer-1 (molecular Probes, Eugene, Oreg.). A Zeiss 410 Invert confocal laser scanning microscope was used to inspect the slices and quantify staining.

[3] = tested on: experimental autoimmune encephalomyelitis; conditions: mice treated 5, 7 and 9 days after induction of the disease; cited from earlier work
[4] = tested on: TLR3; assay: IL-6 release by astrocytes from wild-type mice (ELISA); type: cell-based; conditions: wild-type mouse astrocytes, 48 h
Method: as §1

[5] = tested on: TLR3; assay: CXCL8 release by cultured human astrocytes (ELISA); type: cell-based
Method: Cos-7 cells (25,000 cells per well in 96-well plates) were transfected for 5 h with 768 pools of cDNA derived from human brain tumours (5 pooled tumours including meningioma, oligodendroglioma, astrocytoma grades II and IV, and medulloblastoma; NCI CGAP Brn35; Invitrogen) using lipofectamine, after which cells were thoroughly washed. Transfection with green-fluorescent protein-encoding cDNA was used as an internal control for transfection efficiencies. After continued culture of the transfected cells for 48 h, 75 μL of each culture supernatant was harvested and added to cultured human astrocytes seeded at 1,000 cells per well in 75 μL. After 48 h of culture, supernatants were harvested and evaluated for CXCL8 release using ELISA. Stimulation of astrocytes with poly I:C served as positive controls for CXCL8 release in all cases, non-transfected Cos 7 culture supernatants as negative controls.
(§2) Purified recombinant stathmin was exposed to two different conditions that differentially affect the extent of helix formation within the protein chain. One part of the protein preparation was exposed to 5% trifluoroacetic acid (TFA) in water for 1 h at 37° C., strongly acidic conditions that tend to disrupt an alpha helix. In parallel, another part was exposed for 1 h at 37° C. to 5% of the helix-promoting solvent trifluoroethanol (TFE) in phosphate-buffered saline (PBS). After exposure to these different conditions, both protein samples were extensively dialysed for 48 h against several changes of PBS. Next, the samples were analyzed by […] circular dichroism spectroscopy that allows calculation of helical content on the basis of elipticity in the absorption of circularly polarized light. In both cases, another part of the dialyzed sample was tested in parallel for induction of TLR3-mediated release of CXCL8 (IL-8) in human astrocytes as described elsewhere in this application.

[6] = tested on: human adult astrocytes; assay: cDNA array profiling of cytokine, chemokine and growth factor genes in human adult astrocytes; type: cell-based
Method: Adult human astrocytes from post-mortem subcortical white matter samples were isolated and cultured as previously described (Bsibsi et al., J Neuropath Exp Neurol 61:1013-1021 [2002]). […] When indicated astrocytes were stimulated with 50 μg/mL poly I:C (Amersham Pharmacia Biotech, Piscataway, N.J.) or 200 ng/mL LPS (Sigma-Aldrich, Steinheim, Germany) to activate TLR3 and TLR4, respectively. […] It should be noted that contaminants in the commercial LPS preparation could possibly lead to some level of TLR2 activation in addition to TLR4 by the LPS preparation used but not of TLR3. When stimulated with cytokines, astrocytes were supplied with TNF-α, IFN-γ, IL-1β (each at 500 U/mL), IL-4 (at 250 U/mL), IL-6 (at 200 U/mL), IL-12 (at 50 ng/mL), IL-10 (at 20 ng/mL) and TGF-β (at 12.5 ng/mL) (PeproTech, Rocky Hill, N.Y.). […] Endothelial cells (UVEC) were isolated from umbillical cords and cultured on gelatin-coated dishes in M199 supplemented with 20 nM HEPES, 10% human serum, 10% heat-inactivated NBCS, 150 mg/mL ECGF, 5 U/mL heparin, 100 IU/mL penicillin and […] streptomycin.
Analysis of the mRNA profile of astrocytes was performed by hybrid selection of ^32P-labeled cDNA on Clontech human cytokine/chemokine Atlas® arrays as previous described (Meeuwsen et al., Glia 43:243-253 [2003]). Hybridization signals for each of the 268 cytokine, chemokine and growth factor (receptor) genes were calculated as the mean of duplicate measurements, corrected for background intensity and quantified using software provided by the manufacturer. Relative expression was calculated by dividing these hybridization signals by the mean signal for all nine housekeeping reference genes on the corresponding array.
Gene profiling was performed using astrocytes from four different control donors.
Astrocytes were isolated from post mortem human brain tissue samples and cultured under conditions as described elsewhere in this application. One part of the culture was stimulated with 50 μg/ml stathmin, the second with 50 μg/ml poly I:C and a third was left untreated to served as a reference control. Following another 48 h RNA was isolated from each culture and ^32P-labeled cDNA was prepared by reverse transcription. Subsequent hybrid selection of these ^32P-labeled cDNA samples was performed on Clontech Atlas® arrays containing selective probes for 268 cytokines, chemokines and growth factors, and various receptors for these mediators. All hybridization signals were calculated as the mean of duplicate measurements, corrected for background intensity and quantified using software provided by the manufacturer. Relative signal strength was next calculated by dividing these averaged hybridization signals by the mean signal for all nine housekeeping reference genes that were also present on each array as a reference.

[7] = tested on: TLR3; assay: TLR expression in cultured adult human astrocytes by real-time PCR; type: cell-based
Method: Adult human astrocytes from post-mortem subcortical white matter samples were isolated and cultured as previously described (Bsibsi et al., J Neuropath Exp Neurol 61:1013-1021 [2002]). As determined by specific staining for cellular markers for astrocytes (glial fibrillary acidic protein; GFAP) and microglia (CD68) astrocyte cultures were essentially homogeneous; as a rule all cells expressed GFAP and none of them expressed CD68. When indicated astrocytes were stimulated with 50 μg/mL poly I:C (Amersham Pharmacia Biotech, Piscataway, N.J.) or 200 ng/mL LPS (Sigma-Aldrich, Steinheim, Germany) to activate TLR3 and TLR4, respectively. These doses were selected on the basis of maximum effects in astrocytes. It should be noted that contaminants in the commercial LPS preparation could possibly lead to some level of TLR2 activation in addition to TLR4 by the LPS preparation used but not of TLR3. When stimulated with cytokines, astrocytes were supplied with TNF-α, IFN-γ, IL-1β (each at 500 U/mL), IL-4 (at 250 U/mL), IL-6 (at 200 U/mL), IL-12 (at 50 ng/mL), IL-10 (at 20 ng/mL) and TGF-β (at 12.5 ng/mL) (PeproTech, Rocky Hill, N.Y.). Control cDNA array profiling experiments included treatment with 50 μg/mL cycloheximide for 30 min prior to and during poly I:C treatment, or with 200 U/mL IFNβ (Avonex). Endothelial cells (UVEC) were isolated from umbillical cords and cultured on gelatin-coated dishes in M199 supplemented with 20 nM HEPES, 10% human serum, 10% heat-inactivated NBCS, 150 mg/mL ECGF, 5 U/mL heparin, 100 IU/mL penicillin and […] streptomycin. Total cellular RNA was isolated using RNA-Bee™ as previously described (Bsibsi et al., [2002] supra). Subsequently, RNA was reverse transcribed into cDNA and levels of TLR1-10 and β-actin as a reference were determined by quantitative real-time PCR. The following fluorogenic molecular beacons and primers (Biolegio, Nijmegen, The Netherlands) were used: The β-actin beacon contained 5′ fluorescein VIC, and the 3′ quencher Dabcyl. […] Data were analyzed using sequence detector version 1.7 software.

[8] = biological target: human Toll-like receptor 3 (human) (UniProt O15455); assay: cell-based or functional assay
[9] = Circular dichroism spectroscopy, helical content; type: physicochemical; conditions: pre-treated 1 h at 37° C., dialysed 48 h against PBS
Method: as §2, with “[…] […]” for “In parallel, another part was exposed for 1 h at 37° C. to 5% of the helix-promoting solvent trifluoroethanol (TFE) in phosphate-buffered saline (PBS). After exposure to these different conditions, both protein samples were extensively dialysed for 48 h against several changes of PBS.”

[10] = agonist-treated vs untreated astrocytes, 48 h

For poly I:C, the IL-6 release [1] is given as “fully abrogated”, the survival of neurons [2] is given as “promoted neuronal survival equally well” and the “disease development in EAE” value [3] is given as “almost completely blocks subsequent disease development”. For the same molecule, the IL-6 release [4] was “marked IL-6 release”, the “release levels of CXCL8” value ([5]; human adult astrocyte cultures) was “around 200 ng/mL” and the “change in expression of genes encoding immune mediators and growth factors” value ([6]; 50 μg/ml, 48 h) was “comprehensive and marked change in expression”. For the same molecule, the “Jag1, downregulation factor” value ([6]; 48 h) was 1.96, the “p40 subunit of IL-12 and IL-23, down-regulation factor” value ([6]; 48 h) was ~2 and the “ERBB4 receptor protein-tyrosine kinase, ratio of expression” value [6, 10] was 0.43. For the same molecule, the “Smo, ratio of expression” value [6, 10] was 0.48, the “VEGF receptor 2, ratio of expression” value [6, 10] was 0.22 and the “induction of chemokines CXCL8, CXCL2 and CCL3” value ([6]; astrocytes) was “strongly induced”. The “induction of IL-9” value ([6]; astrocytes, 48 h) was 7.5 fold, the “induction of IL-10” value ([6]; astrocytes, 48 h) was 2.3 fold and the “induction of IL-11” value ([6]; astrocytes, 48 h) was 3.2 fold. For the same molecule, the “induction of TNF-α” value ([6]; astrocytes, 48 h) was “induced”, the “induction of tumour necrosis factor-stimulated gene 6 (TSG-6)” value ([6]; astrocytes, 48 h) was “over 10 fold” and the “induction of CCL4, CXCL6, CCL5, CXCL9 and CCL2” value ([6]; astrocytes, to a lesser extent) was “leads to induction”.

For “TGF-β: anti-inflammatory cytokine, 12.5 ng/mL”, the “induction of TLR3 expression (in words)” value [7] was “No induction of TLR3”.

Molecule “recombinant human stathmin (from UniProt P16949 1-149) (ligand)” has a Pearson correlation coefficient (r) between gene expression profiles (268 genes) of human astrocytes stimulated with 50 µg/ml stathmin or 50 µg/ml poly I:C [8] of 0.951 and a TLR3-mediated release of CXCL8 (IL-8) in human astrocytes: TFE-treated stathmin (37% alpha helix) against TFA-treated stathmin (12% alpha helix) [8] of 3 fold.

For `OO` [H2O2], the “induction of TLR3 expression (in words)” value [7] was “selective induction of TLR3”.

B1: TFA-treated sample: purified recombinant stathmin exposed to 5% TFA in water for 1 h at 37° C. and dialysed against PBS (protein, UniProt P16949 2-149, looked up)
Stathmin: ASSDIQVKELEKRASGQAFELILSPRSKESVPEFPLSPPKKKDLSLEEIQKKLEAAEERRKSHEAEVLKQLAEKREHEKEVLQKAIEENNNFSKMAEEKLTHKMEANKENREAQMAAKLERLREKDKHIEEVRKNKESKDPADETEAD
modifications: TFA-treated
notes: purified recombinant stathmin exposed to 5% TFA in water for 1 h at 37° C. and dialysed against PBS
Work on B1 yielded an alpha helical content [9] of 12%.

B2: TFE-treated sample: purified recombinant stathmin exposed to 5% TFE in PBS for 1 h at 37° C. and dialysed against PBS (protein, UniProt P16949 2-149, looked up)
Stathmin: B1 Stathmin
modifications: TFE-treated
notes: purified recombinant stathmin exposed to 5% TFE in PBS for 1 h at 37° C. and dialysed against PBS
In the case of B2, the “activity in activating astrocytes (CXCL8/IL-8 release), TFE-treated relative to TFA-treated sample” value ([5]; on weight basis) is reported as “about 3 fold” and the alpha helical content [9] is reported as 37%.

B3: IL-10: anti-inflammatory cytokine, 20 ng/mL (protein, UniProt P22301 19-178, looked up)
Interleukin-10: SPGQGTQSENSCTHFPGNLPNMLRDLRDAFSRVKTFFQMKDQLDNLLLKESLLEDFKGYLGCQALSEMIQFYLEEVMPQAENQDPDIKAHVNSLGENLKTLRLRLRRCHRFLPCENKSKAVEQVKNAFNKLQEKGIYKAMSEFDIFINYIEAYMTMKIRN
For B3, the “induction of TLR3 expression (in words)” value [7] was “No induction of TLR3”.

— patent US20090253622A1, “USE OF TLR3 AGONISTS FOR THE TREATMENT OF NEURODEGENERATIVE DISORDERS” (Nederlandse Organisatie voor toegepast - …, priority 2006, published 2009)
